Results on eight molecules are retold here after patent US20260217767A1, “NOVEL A4B7 THIOETHER PEPTIDE DIMER ANTAGONISTS” (Protagonist Therapeutics, Inc., priority 2014, published 2026).

Where a SMILES comes first, the peptide text is derived from it.

Data set [1] in a line: Simulated Intestinal Fluid (SIF) Stability Assay. The data set is classed as in vitro ADME. The note with it: simulated gi fluid, porcine pancreatin, 37° C.; monomers, Table 6. The method, then:
Simulated Intestinal Fluid (SIF) Stability Assay
Studies were carried out in simulated intestinal fluid (SIF) to evaluate intestinal stability of the peptide molecules of the instant invention. To prepare the SIF reagent, blank FASSIF was prepared by dissolving 0.348 g NaOH, 3.954 g sodium phosphate monobasic monohydrate and 6.186 g NaCl in a final volume of 1 liter water (final pH=6.5). To this solution, 24 g porcine pancreatin (Sigma catalog P7545) was added and stirred for 30 minutes (final pancreatin concentration is 2.4%). The solution was filtered through a cheese cloth and a No. 1 Whatman filter, and 10 ml aliquots were stored at −70° C. To run the reaction, a 10 ml aliquot was thawed at 37° C., and 125 μl aliquots were removed and mixed with an equal volume of blank FASSIF. The peptide stock solution (10 mM in 100% DMSO) was diluted 75-fold in blank FASSIF. A 50 μl aliquot of the diluted peptide was combined with 125 μl pancreatin (2.4%) and 125 μl blank FASSIF to yield final concentrations of 1% pancreatin and 22 μM peptide. The reactions were incubated at 37° C., and at various time points 50 μl aliquots were removed and added to 200 μl of quench solution containing 50% acetonitrile, 50% methanol, 5% formic acid, and 1 μg/ml internal standard. The quenched samples were centrifuged at 10,000 rpm for 10 minutes, and the supernatants were analyzed by LCMS/MS. The percent remaining at each time point was calculated based on the peak area response ratio of test to compound to internal standard. Half-lives were calculated by fitting to a first-order exponential decay equation using GraphPad. A small sampling of the results of these studies is provided and discussed herein and in the accompanying figures.

The target of a further data set is T1, RPMI 8866 cells (Homo sapiens, UniProt P13612+P26010).
T1 sequence (P13612 34-1032): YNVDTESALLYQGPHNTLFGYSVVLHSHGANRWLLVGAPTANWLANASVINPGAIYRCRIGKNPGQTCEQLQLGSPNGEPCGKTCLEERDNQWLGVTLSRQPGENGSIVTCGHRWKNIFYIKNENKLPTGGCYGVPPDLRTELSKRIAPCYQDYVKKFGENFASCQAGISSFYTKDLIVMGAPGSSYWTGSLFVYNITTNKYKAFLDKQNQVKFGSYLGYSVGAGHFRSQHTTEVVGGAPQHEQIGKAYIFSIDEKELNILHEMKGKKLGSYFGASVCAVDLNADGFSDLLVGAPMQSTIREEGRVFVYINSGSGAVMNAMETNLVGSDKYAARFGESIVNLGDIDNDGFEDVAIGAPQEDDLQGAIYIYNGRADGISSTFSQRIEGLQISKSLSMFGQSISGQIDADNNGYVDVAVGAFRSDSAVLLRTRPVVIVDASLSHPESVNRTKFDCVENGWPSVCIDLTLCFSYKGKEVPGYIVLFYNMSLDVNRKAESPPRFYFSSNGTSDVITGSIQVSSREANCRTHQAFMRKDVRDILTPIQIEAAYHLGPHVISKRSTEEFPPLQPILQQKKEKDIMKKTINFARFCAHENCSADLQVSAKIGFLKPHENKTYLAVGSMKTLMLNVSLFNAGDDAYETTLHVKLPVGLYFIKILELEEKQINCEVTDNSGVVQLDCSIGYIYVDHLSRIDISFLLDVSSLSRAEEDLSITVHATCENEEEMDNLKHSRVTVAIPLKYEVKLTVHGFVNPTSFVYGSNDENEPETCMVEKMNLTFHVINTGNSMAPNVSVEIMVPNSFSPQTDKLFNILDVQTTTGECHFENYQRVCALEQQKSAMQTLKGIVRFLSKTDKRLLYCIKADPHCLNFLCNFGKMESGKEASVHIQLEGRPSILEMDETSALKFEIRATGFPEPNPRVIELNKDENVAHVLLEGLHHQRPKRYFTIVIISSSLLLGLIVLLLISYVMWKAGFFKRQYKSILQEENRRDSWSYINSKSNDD
T1 sequence (P26010 20-798): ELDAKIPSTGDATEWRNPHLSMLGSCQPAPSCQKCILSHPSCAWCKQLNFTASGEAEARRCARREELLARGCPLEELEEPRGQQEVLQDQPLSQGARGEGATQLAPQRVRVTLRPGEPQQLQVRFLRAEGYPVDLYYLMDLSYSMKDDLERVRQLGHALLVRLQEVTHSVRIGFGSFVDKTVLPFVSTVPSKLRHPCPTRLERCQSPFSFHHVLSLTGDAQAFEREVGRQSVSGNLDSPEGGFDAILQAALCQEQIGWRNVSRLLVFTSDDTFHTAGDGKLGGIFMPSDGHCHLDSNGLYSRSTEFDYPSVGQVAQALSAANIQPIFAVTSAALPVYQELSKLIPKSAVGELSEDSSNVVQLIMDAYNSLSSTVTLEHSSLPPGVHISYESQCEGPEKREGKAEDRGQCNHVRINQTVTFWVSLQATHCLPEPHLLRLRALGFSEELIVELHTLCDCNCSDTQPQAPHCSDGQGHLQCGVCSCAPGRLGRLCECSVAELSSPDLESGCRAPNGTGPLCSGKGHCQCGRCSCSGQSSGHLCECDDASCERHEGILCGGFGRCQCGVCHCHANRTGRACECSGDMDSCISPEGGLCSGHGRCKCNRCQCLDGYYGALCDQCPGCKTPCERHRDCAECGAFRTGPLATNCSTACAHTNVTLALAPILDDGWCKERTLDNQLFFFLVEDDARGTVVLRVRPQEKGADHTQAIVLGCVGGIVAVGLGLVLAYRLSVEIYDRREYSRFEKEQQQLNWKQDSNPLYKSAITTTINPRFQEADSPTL
Kind of data set: α4β7-MAdCAM Cell Adhesion Assay. The data set is classed as cell-based. The note with it: thioether peptide dimers, Table 7; read-out: Cell-Adhesion A4B7. Here is the method: α4β7-MAdCAM Cell Adhesion Assay
RPMI 8866 cells (Sigma #95041316) were cultured in RPMI 1640 HEPES medium (Invitrogen #22400-089) supplemented with 10% serum (Fetal Bovine Serum, Invitrogen #16140-071), 1 mM sodium pyruvate (Invitrogen #11360-070), 2 mM L-glutamine (Invitrogen #25030-081) and Penicillin-Streptomycin (Invitrogen #15140-122) at 100 units of penicillin and 100 μg of streptomycin per ml. The cells were washed two times in DMEM medium (ATCC #30-2002) supplemented with 0.1% BSA, 10 mM HEPES pH 7 and 1 mM MnCl2. The cells were re-suspended in supplemented DMEM medium at a density of 4×10^6 cells/ml.
A Nunc MaxiSorp plate was coated with rh MAdCAM-1/Fc Chimera (R&D #6065-MC) at 200 ng per well in 50 ul per well in 1×PBS and incubated at 4° C. overnight. The solution was then removed by shaking, blocked with 250 ul per well PBS containing 1% BSA, and incubated at 37° C. for 1 hr. The solution was removed by shaking. Peptides were diluted by serial dilution in a final volume of 50 ul per well (2× concentration). To each well, 50 ul of cells (200,000 cells) were added and the plate was incubated at 37° C., 5% CO2 for 30-45 min to allow cell adhesion. The wells were washed manually three times (100 ul per wash) with supplemented DMEM. After the final wash, 100 μl/well of supplemented DMEM and 10 ul/well of MTT reagent (ATTC cat #30-1010K) were added. The plate was incubated at 37° C., 5% CO2 for 2-3 hrs until a purple precipitate is visible. 100 ul of Detergent Reagent (ATTC cat #30-1010K) was added to each well. The plate was covered from the light, wrapped in Parafilm to prevent evaporation, and left overnight at room temperature in the dark. The plate was shaken for 5 min and the absorbance at 570 nm is measured. To calculate the dose response, the absorbance value of control wells not containing cells was subtracted from each test well.

Take `CC(C)C[C@@H]1NC(=O)[C@H]([C@@H](C)O)NC(=O)[C@H](CC(=O)O)NC(=O)[C@H](CO)NC(=O)[C@H](CCCNC(=N)N)N(C)C(=O)c2ccccc2CSC(C)(C)[C@@H](C(=O)N[C@@H](Cc2c[nH]c3ccccc23)C(=O)N[C@@H](CCC(=O)O)C(=O)N[C@H](CCCCN)C(N)=O)NC1=O` [compound 56] (HELM PEPTIDE1{[meR].S.D.T.L.[Pen].W.E.[dK].[am]}|CHEM1{[O=C(c1ccccc1C[*:2])[*:1]]}$PEPTIDE1,CHEM1,1:R1-1:R1|PEPTIDE1,CHEM1,6:R3-1:R2$$$V2.0): the half-life in data set [1] is 3.1 h.
On to `CC(C)C[C@@H]1NC(=O)[C@H]([C@@H](C)O)NC(=O)[C@H](CC(=O)O)NC(=O)[C@H](CO)NC(=O)[C@H](CCCNC(=N)N)N(C)C(=O)c2ccccc2CSC(C)(C)[C@@H](C(=O)N[C@@H](Cc2c[nH]c3ccccc23)C(=O)N[C@H](CCC(=O)O)C(=O)N[C@H](Cc2ccc(O)cc2)C(=O)N[C@H](CCCCN)C(N)=O)NC1=O` [compound 201] (HELM PEPTIDE1{[meR].S.D.T.L.[Pen].W.[dE].[dY].[dK].[am]}|CHEM1{[O=C(c1ccccc1C[*:2])[*:1]]}$PEPTIDE1,CHEM1,1:R1-1:R1|PEPTIDE1,CHEM1,6:R3-1:R2$$$V2.0), for which the IC50 on RPMI 8866 cells was under 0.025 µM.
For the molecule `CC(C)C[C@@H]1NC(=O)[C@H]([C@@H](C)O)NC(=O)[C@H](CC(=O)O)NC(=O)[C@H](CO)NC(=O)[C@H](CCCNC(=N)N)N(C)C(=O)c2ccccc2CSC(C)(C)[C@@H](C(=O)N[C@@H](Cc2c[nH]c3ccccc23)C(=O)N[C@@H](Cc2ccc(-c3ccccc3)cc2)C(=O)N[C@H](CCCCN)C(N)=O)NC1=O` [compound 202] (HELM PEPTIDE1{[meR].S.D.T.L.[Pen].W.[O=C([C@H](Cc1ccc(-c2ccccc2)cc1)N[*:1])[*:2]].[dK].[am]}|CHEM1{[O=C(c1ccccc1C[*:2])[*:1]]}$PEPTIDE1,CHEM1,1:R1-1:R1|PEPTIDE1,CHEM1,6:R3-1:R2$$$V2.0), the IC50 at RPMI 8866 cells was in the range of 0.1 to 1 µM.
Still for that read-out and setting: the result for `CC(C)C[C@@H]1NC(=O)[C@H]([C@@H](C)O)NC(=O)[C@H](CC(=O)O)NC(=O)[C@H](CO)NC(=O)[C@H](CCCNC(=N)N)N(C)C(=O)c2ccccc2CSC(C)(C)[C@@H](C(=O)N[C@@H](Cc2ccccc2)C(=O)N[C@@H](Cc2ccc(-c3ccccc3)cc2)C(=O)N[C@H](CCCCN)C(N)=O)NC1=O` [compound 203] (HELM PEPTIDE1{[meR].S.D.T.L.[Pen].F.[O=C([C@H](Cc1ccc(-c2ccccc2)cc1)N[*:1])[*:2]].[dK].[am]}|CHEM1{[O=C(c1ccccc1C[*:2])[*:1]]}$PEPTIDE1,CHEM1,1:R1-1:R1|PEPTIDE1,CHEM1,6:R3-1:R2$$$V2.0) reads 0.1 to 1 µM; that for `CC(C)C[C@@H]1NC(=O)[C@H]([C@@H](C)O)NC(=O)[C@H](CC(=O)O)NC(=O)[C@H](CO)NC(=O)[C@H](CCCNC(=N)N)N(C)C(=O)c2ccccc2CSC[C@@H](C(=O)N2Cc3ccccc3C[C@H]2C(=O)N[C@@H](Cc2ccc(-c3ccccc3)cc2)C(=O)N[C@H](CCCCN)C(N)=O)NC1=O` [compound 205] (HELM PEPTIDE1{[meR].S.D.T.L.C.[Tic].[O=C([C@H](Cc1ccc(-c2ccccc2)cc1)N[*:1])[*:2]].[dK].[am]}|CHEM1{[O=C(c1ccccc1C[*:2])[*:1]]}$PEPTIDE1,CHEM1,1:R1-1:R1|PEPTIDE1,CHEM1,6:R3-1:R2$$$V2.0), 0.1 to 1 µM; that for `CC(C)C[C@@H]1NC(=O)[C@H]([C@@H](C)O)NC(=O)[C@H](CC(=O)O)NC(=O)[C@H](CO)NC(=O)[C@H](CCCNC(=N)N)N(C)C(=O)c2ccccc2CSC(C)(C)[C@@H](C(=O)N[C@@H](Cc2ccc3ccccc3c2)C(=O)N[C@@H](Cc2ccc(-c3ccccc3)cc2)C(=O)N[C@H](CCCCN)C(N)=O)NC1=O` [compound 206], over 1 µM.
As for `COC(=O)CC[C@H](NC(=O)[C@H](Cc1c[nH]c2ccccc12)NC(=O)[C@H]1NC(=O)[C@H](CC(C)C)NC(=O)[C@H]([C@@H](C)O)NC(=O)[C@H](CC(=O)O)NC(=O)[C@H](CO)NC(=O)[C@H](CCCNC(=N)N)N(C)C(=O)c2ccccc2CSC1(C)C)C(=O)N[C@H](CCCCN)C(N)=O` [compound 210] (HELM PEPTIDE1{[meR].S.D.T.L.[Pen].W.E.[dK].[am]}|CHEM1{[CO[*:1]]}|CHEM2{[O=C(c1ccccc1C[*:2])[*:1]]}$PEPTIDE1,CHEM1,8:R3-1:R1|PEPTIDE1,CHEM2,1:R1-1:R1|PEPTIDE1,CHEM2,6:R3-1:R2$$$V2.0), the IC50 at RPMI 8866 cells is 0.1 to 1 µM.
Regarding `CC(C)C[C@@H]1NC(=O)[C@H]([C@@H](C)O)NC(=O)[C@H](CC(=O)O)NC(=O)[C@H](CO)NC(=O)[C@H](CCCNC(=N)N)N(C)C(=O)c2ccccc2CSC(C)(C)[C@@H](C(=O)N[C@@H](Cc2c[nH]c3ccccc23)C(=O)N[C@H](CCC(=O)O)C(=O)N[C@H](CCCCN)C(N)=O)NC1=O` [compound 212] (HELM PEPTIDE1{[meR].S.D.T.L.[Pen].W.[dE].[dK].[am]}|CHEM1{[O=C(c1ccccc1C[*:2])[*:1]]}$PEPTIDE1,CHEM1,1:R1-1:R1|PEPTIDE1,CHEM1,6:R3-1:R2$$$V2.0), on RPMI 8866 cells, the IC50 is 0.025 to 0.1 µM.

For orientation: half-life means the time needed for the level to fall by half in the phase considered.
